In patent publication US20260159511A1, “SMALL MOLECULE STING ANTAGONISTS” (CURADEV PHARMA PVT. LTD., priority 2021, published 2026):

system: IRF pathway in THP1-Dual™ cells, THP-1 (HAQ); assay: Reporter gene expression assay in THP-1 cells (THP1-Dual, IRF pathway Lucia luciferase reporter, 2′,3′-cGAMP stimulation); format: cell-based, human; conditions: Homo sapiens; THP1-Dual cells preincubated with compound 10 minutes, stimulation with 5 μM 2′,3′-cGAMP for 20 hr, QUANTI-Luc readout of the supernatant; read-out: THP-1 (HAQ) Activity (IC50 value range)
Experimental: Reporter Gene Expression Assay in THP-1 Cells
THP1-Dual™ cells (Invivogen) were derived from the human THP-1 monocyte cell line by stable integration of two inducible reporter constructs. As a result, THP1-Dual™ cells allow the simultaneous study of the IRF pathway, by assessing the activity of a secreted luciferase (Lucia) and the NF-κB pathway, by monitoring the activity of secreted SEAP. 5×10^4 THP1-Dual™ cells were seeded in 384-well plates in growth medium and preincubated with novel compounds for 10 minutes followed by stimulation with 5 μM 2′,3′-cGAMP. After 20 hr of stimulation the supernatant was removed and the IRF pathway reporter protein was readily measured in the cell culture supernatant using QUANTI-Luc™ (Invivogen), a luciferase detection reagent on a Spectramax i3X luminometer.

IC50 | SMILES
< 1000 nM | O=C(Nc1ccc2c(c1)N(Cc1ccccc1)C(=O)CS2)Nc1c[nH]c2ccc(-c3ccc4c(c3)OCO4)cc12 [Example 65, 1-(5-(benzo[d][1,3]dioxol-5-yl)-1H-indol-3-yl)-3-(4-benzyl-3-oxo-3,4-dihydro-2H-benzo[b][1,4]thiazin-6-yl)urea]
< 1000 nM | O=C(Nc1ccc2c(c1)N(Cc1ccccc1)C(=O)CS2)Nc1c[nH]c2ccc(-c3cnoc3)cc12 [Example 66, 1-(4-benzyl-3-oxo-3,4-dihydro-2H-benzo[b][1,4]thiazin-6-yl)-3-(5-(isoxazol-4-yl)-1H-indol-3-yl)urea]
< 1000 nM | O=C(Nc1ccc2c(c1)N(Cc1ccccc1)C(=O)CS2)Nc1c[nH]c2ccc(-c3cccc(C(F)(F)F)c3)cc12 [Example 67, 1-(4-benzyl-3-oxo-3,4-dihydro-2H-benzo[b][1,4]thiazin-6-yl)-3-(5-(3-(trifluoromethyl)phenyl)-1H-indol-3-yl)urea]
1000 to 10000 nM | CC(O)Cn1cc(-c2ccc3[nH]cc(NC(=O)Nc4ccc5c(c4)N(Cc4ccccc4)C(=O)CS5)c3c2)cn1 (stereo not drawn) [Example 68, 1-(4-benzyl-3-oxo-3,4-dihydro-2H-benzo[b][1,4]thiazin-6-yl)-3-(5-(1-(2-hydroxypropyl)-1H-pyrazol-4-yl)-1H-indol-3-yl)urea]
< 1000 nM | CC1CN(Cc2cc(F)cc(F)c2)c2cc(NC(=O)Nc3c[nH]c4ccc(F)cc34)ccc2S1 (stereo not drawn) [Example 69, 1-(4-(3,5-Difluorobenzyl)-2-methyl-3,4-dihydro-2H-benzo[b][1,4]thiazin-6-yl)-3-(5-fluoro-1H-indol-3-yl)urea]
< 1000 nM | CC1CN(C(=O)c2ccccc2)c2cc(NC(=O)Nc3c[nH]c4ccccc34)ccc2S1 (stereo not drawn) [Example 70, 1-(4-Benzoyl-2-methyl-3,4-dihydro-2H-benzo[b][1,4]thiazin-6-yl)-3-(1H-indol-3-yl)urea]
< 1000 nM | O=C(Nc1ccc2c(c1)N(Cc1ccccc1)CCO2)Nc1c[nH]c2ccccc12 [Example 71, 1-(4-benzyl-3,4-dihydro-2H-benzo[b][1,4]oxazin-6-yl)-3-(1H-indol-3-yl)urea]
< 1000 nM | O=C(Nc1ccc2c(c1)OCCN2Cc1ccccc1)Nc1c[nH]c2ccccc12 [Example 72, 1-(4-benzyl-3,4-dihydro-2H-benzo[b][1,4]oxazin-7-yl)-3-(1H-indol-3-yl)urea]
< 1000 nM | O=C(Nc1ccc2c(c1)SCCN2Cc1ccccc1)Nc1c[nH]c2ccccc12 [Example 73, 1-(4-benzyl-3,4-dihydro-2H-benzo[b][1,4]thiazin-7-yl)-3-(1H-indol-3-yl)urea]
< 1000 nM | O=C(Nc1ccc2c(c1)N(Cc1c(F)cccc1Cl)CCO2)Nc1c[nH]c2ccccc12 [Example 74, 1-(4-(2-chloro-6-fluorobenzyl)-3,4-dihydro-2H-benzo[b][1,4]oxazin-6-yl)-3-(1H-indol-3-yl)urea]
< 1000 nM | O=C(Nc1ccc2c(c1)N(Cc1c(F)cccc1Cl)CCS2)Nc1c[nH]c2ccccc12 [Example 75, 1-(4-(2-chloro-6-fluorobenzyl)-3,4-dihydro-2H-benzo[b][1,4]thiazin-6-yl)-3-(1H-indol-3-yl)urea]
< 1000 nM | O=C(Nc1ccc2c(c1)OCCN2Cc1c(F)cccc1Cl)Nc1c[nH]c2ccccc12 [Example 76, 1-(4-(2-chloro-6-fluorobenzyl)-3,4-dihydro-2H-benzo[b][1,4]oxazin-7-yl)-3-(1H-indol-3-yl)urea]
< 1000 nM | O=C(Nc1ccc2c(c1)SCCN2Cc1c(F)cccc1Cl)Nc1c[nH]c2ccccc12 [Example 77, 1-(4-(2-chloro-6-fluorobenzyl)-3,4-dihydro-2H-benzo[b][1,4]thiazin-7-yl)-3-(1H-indol-3-yl)urea]
< 1000 nM | CN1CCSc2ccc(NC(=O)Nc3c[nH]c4ccccc34)cc21 [Example 78, 1-(1H-indol-3-yl)-3-(4-methyl-3,4-dihydro-2H-benzo[b][1,4]thiazin-6-yl)urea]
< 1000 nM | O=C(Nc1ccc2c(c1)N(C(=O)c1ccccc1)CCS2)Nc1c[nH]c2ccccc12 [Example 79, 1-(4-benzoyl-3,4-dihydro-2H-benzo[b][1,4]thiazin-6-yl)-3-(1H-indol-3-yl)urea]
< 1000 nM | O=C(Nc1ccc2c(c1)SCCN2C(=O)c1ccccc1)Nc1c[nH]c2ccccc12 [Example 80, 1-(4-benzoyl-3,4-dihydro-2H-benzo[b][1,4]thiazin-7-yl)-3-(1H-indol-3-yl)urea]
< 1000 nM | O=C(Nc1ccc2c(c1)SCCN2Cc1c(F)cccc1F)Nc1c[nH]c2ccccc12 [Example 81, 1-(4-(2,6-difluorobenzyl)-3,4-dihydro-2H-benzo[b][1,4]thiazin-7-yl)-3-(1H-indol-3-yl)urea]
< 1000 nM | Cc1cccc(F)c1CN1CCSc2cc(NC(=O)Nc3c[nH]c4ccccc34)ccc21 [Example 82, 1-(4-(2-fluoro-6-methylbenzyl)-3,4-dihydro-2H-benzo[b][1,4]thiazin-7-yl)-3-(1H-indol-3-yl)urea]

IC50 | SMILES
< 1000 nM | CC1CN(Cc2ccccc2)c2cc(NC(=O)Nc3c[nH]c4ccccc34)ccc2S1 (stereo not drawn) [Example 83, 1-(4-benzyl-2-methyl-3,4-dihydro-2H-benzo[b][1,4]thiazin-6-yl)-3-(1H-indol-3-yl)urea]
< 1000 nM | CC1CN(Cc2c(F)cccc2Cl)c2cc(NC(=O)Nc3c[nH]c4ccccc34)ccc2S1 (stereo not drawn) [Example 84, 1-(4-(2-chloro-6-fluorobenzyl)-2-methyl-3,4-dihydro-2H-benzo[b][1,4]thiazin-6-yl)-3-(1H-indol-3-yl)urea]
< 1000 nM | CC1CN(Cc2ccccc2)c2ccc(NC(=O)Nc3c[nH]c4ccccc34)cc2S1 (stereo not drawn) [Example 85, 1-(4-benzyl-2-methyl-3,4-dihydro-2H-benzo[b][1,4]thiazin-7-yl)-3-(1H-indol-3-yl)urea]
< 1000 nM | Cc1cc(CN2CCSc3cc(NC(=O)Nc4c[nH]c5ccccc45)ccc32)on1 [Example 86, 1-(1H-indol-3-yl)-3-(4-((3-methylisoxazol-5-yl)methyl)-3,4-dihydro-2H-benzo[b][1,4]thiazin-7-yl)urea]
< 1000 nM | N#Cc1ccccc1CN1CCSc2cc(NC(=O)Nc3c[nH]c4ccccc34)ccc21 [Example 87, 1-(4-(2-cyanobenzyl)-3,4-dihydro-2H-benzo[b][1,4]thiazin-7-yl)-3-(1H-indol-3-yl)urea]
< 1000 nM | O=C(Nc1ccc2c(c1)SCCN2Cc1cc(F)cc(F)c1)Nc1c[nH]c2ccccc12 [Example 88, 1-(4-(3,5-difluorobenzyl)-3,4-dihydro-2H-benzo[b][1,4]thiazin-7-yl)-3-(1H-indol-3-yl)urea]
< 1000 nM | O=C(Nc1ccc2c(c1)SCCN2Cc1ccccn1)Nc1c[nH]c2ccccc12 [Example 89, 1-(1H-indol-3-yl)-3-(4-(pyridin-2-ylmethyl)-3,4-dihydro-2H-benzo[b][1,4]thiazin-7-yl)urea]
< 1000 nM | O=C(Nc1ccc2c(c1)N(Cc1cc(F)cc(F)c1)CCO2)Nc1c[nH]c2ccccc12 [Example 90, 1-(4-(3,5-difluorobenzyl)-3,4-dihydro-2H-benzo[b][1,4]oxazin-6-yl)-3-(1H-indol-3-yl)urea]
< 1000 nM | O=C(Nc1ccc2c(c1)N(Cc1cc(F)cc(F)c1)CCO2)Nc1c[nH]c2ccc(F)cc12 [Example 91, 1-(4-(3,5-difluorobenzyl)-3,4-dihydro-2H-benzo[b][1,4]oxazin-6-yl)-3-(5-fluoro-1H-indol-3-yl)urea]
< 1000 nM | O=C(Nc1ccc2c(c1)N(Cc1cc(F)cc(F)c1)CCS2)Nc1c[nH]c2ccccc12 [Example 92, 1-(4-(3,5-difluorobenzyl)-3,4-dihydro-2H-benzo[b][1,4]thiazin-6-yl)-3-(1H-indol-3-yl)urea]
< 1000 nM | O=C(Nc1ccc2c(c1)N(Cc1cc(F)cc(F)c1)CCS2)Nc1c[nH]c2ccc(F)cc12 [Example 93, 1-(4-(3,5-difluorobenzyl)-3,4-dihydro-2H-benzo[b][1,4]thiazin-6-yl)-3-(5-fluoro-1H-indol-3-yl)urea]
< 1000 nM | CC1CN(Cc2cc(F)cc(F)c2)c2cc(NC(=O)Nc3c[nH]c4ccccc34)ccc2S1 (stereo not drawn) [Example 94, 1-(4-(3,5-difluorobenzyl)-2-methyl-3,4-dihydro-2H-benzo[b][1,4]thiazin-6-yl)-3-(1H-indol-3-yl)urea]
< 1000 nM | NC(=O)c1ccccc1CN1CCSc2cc(NC(=O)Nc3c[nH]c4ccccc34)ccc21 [Example 95, 2-((7-(3-(1H-indol-3-yl)ureido)-2,3-dihydro-4H-benzo[b][1,4]thiazin-4-yl)methyl)benzamide]
< 1000 nM | Cc1cc(CN2CCSc3cc(NC(=O)Nc4c[nH]c5ccccc45)ccc32)no1 [Example 96, 1-(1H-indol-3-yl)-3-(4-((5-methylisoxazol-3-yl)methyl)-3,4-dihydro-2H-benzo[b][1,4]thiazin-7-yl)urea]
< 1000 nM | CC1CN(Cc2ccccc2)c2cc(NC(=O)Nc3c[nH]c4ccc(F)cc34)ccc2S1 (stereo not drawn) [Example 97, 1-(4-benzyl-2-methyl-3,4-dihydro-2H-benzo[b][1,4]thiazin-6-yl)-3-(5-fluoro-1H-indol-3-yl)urea]
< 1000 nM | O=C(Nc1ccc2c(c1)N(Cc1ccccc1)CCS2)Nc1c[nH]c2cc(F)ccc12 [Example 98, 1-(4-benzyl-3,4-dihydro-2H-benzo[b][1,4]thiazin-6-yl)-3-(6-fluoro-1H-indol-3-yl)urea]
< 1000 nM | O=C(Nc1ccc2c(c1)N(Cc1ccccc1)CCS2)Nc1c[nH]c2ccc(F)cc12 [Example 99, 1-(4-benzyl-3,4-dihydro-2H-benzo[b][1,4]thiazin-6-yl)-3-(5-fluoro-1H-indol-3-yl)urea]
< 1000 nM | O=C(Nc1ccc2c(c1)N(Cc1ccccc1)CCS2)Nc1c[nH]c2ncc(F)cc12 [Example 100, 1-(4-benzyl-3,4-dihydro-2H-benzo[b][1,4]thiazin-6-yl)-3-(5-fluoro-1H-pyrrolo[2,3-b]pyridin-3-yl)urea]
